In ChEMBL document CHEMBL5136963 (RSC Med Chem, 2021):
Calls of active or inactive are those of the source. The rule behind the calls is not given here.

What was measured:
[1] = biological target: Sodium-dependent dopamine transporter (Rattus norvegicus, UniProt P23977); test: Displacement of [3H]-WIN 3542875 from DAT in Sprague-Dawley rat brain striatum incubated for 120 mins by radioligand binding assay; assay type: tissue-based
[2] = biological target: Sodium-dependent serotonin transporter (Rattus norvegicus, UniProt P31652); test: Displacement of [3H]-citalopram from SERT in Sprague-Dawley rat brainstem incubated for 60 mins by radioligand binding assay; assay type: tissue-based
[3] = biological target: Norepinephrine transporter (Rattus norvegicus, UniProt Q9WTR4); test: Displacement of [3H]-nisoxetine from NET in Sprague-Dawley rat brain prefrontal cortex incubated for 180 mins by radioligand binding assay; assay type: tissue-based
[4] = biological target: Sodium-dependent noradrenaline transporter (Homo sapiens) (UniProt P23975); test: Binding affinity to YFP-tagged human NET expressed in HEK293 cells assessed as fluorescence increase at plasma membrane at 10 nM incubated for 1 to 20 mins by laser scanning microscopy; conditions: time 1-20 min, TDE = time-dependent effect
[5] = biological target: Sodium-dependent serotonin transporter (Homo sapiens) (UniProt P31645); test: Binding affinity to human SERT expressed in HEK293 cells at 10 nM incubated for 20 mins by laser scanning microscopy; assay type: cell-based
[6] = biological target: Sodium-dependent noradrenaline transporter (Homo sapiens) (UniProt P23975); test: Binding affinity to human NET expressed in HEK293 cells assessed as fluorescence increase at plasma membrane at 1 to 10 nM incubated for 10 mins by laser scanning microscopy; conditions: dose 1-10 nM, DDE = dose-dependent effect
Rattus norvegicus [7] = species on record: Rattus norvegicus; test: Selectivity index, ratio of Ki for displacement of [3H]-citalopram from SERT in Sprague-Dawley rat brainstem to Ki for Displacement of [3H]-nisoxetine from NET in Sprague-Dawley rat brain prefrontal cortex
Rattus norvegicus [8] = species on record: Rattus norvegicus; test: Selectivity index, ratio of Ki for Displacement of [3H]-WIN 3542875 from DAT in Sprague-Dawley rat brain striatum to Ki for Displacement of [3H]-nisoxetine from NET in Sprague-Dawley rat brain prefrontal cortex

Sequence of Sodium-dependent serotonin transporter (P31652 whole entry): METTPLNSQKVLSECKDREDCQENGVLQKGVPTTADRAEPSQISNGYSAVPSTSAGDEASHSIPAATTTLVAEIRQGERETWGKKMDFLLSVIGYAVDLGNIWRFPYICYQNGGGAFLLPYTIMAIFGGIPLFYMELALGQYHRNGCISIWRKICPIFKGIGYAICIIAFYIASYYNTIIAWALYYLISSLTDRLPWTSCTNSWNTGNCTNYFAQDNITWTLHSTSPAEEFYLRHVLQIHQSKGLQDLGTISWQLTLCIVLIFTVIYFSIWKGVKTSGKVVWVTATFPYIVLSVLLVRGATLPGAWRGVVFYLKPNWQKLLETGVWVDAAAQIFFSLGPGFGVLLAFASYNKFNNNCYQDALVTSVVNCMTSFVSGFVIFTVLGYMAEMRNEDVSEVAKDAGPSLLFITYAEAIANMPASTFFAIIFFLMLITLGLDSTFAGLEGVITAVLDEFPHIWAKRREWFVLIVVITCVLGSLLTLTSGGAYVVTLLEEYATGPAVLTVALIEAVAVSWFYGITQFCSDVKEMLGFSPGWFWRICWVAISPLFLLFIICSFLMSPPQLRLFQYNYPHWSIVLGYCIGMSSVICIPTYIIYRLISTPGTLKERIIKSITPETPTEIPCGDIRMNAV
Sequence of Sodium-dependent dopamine transporter (P23977 whole entry): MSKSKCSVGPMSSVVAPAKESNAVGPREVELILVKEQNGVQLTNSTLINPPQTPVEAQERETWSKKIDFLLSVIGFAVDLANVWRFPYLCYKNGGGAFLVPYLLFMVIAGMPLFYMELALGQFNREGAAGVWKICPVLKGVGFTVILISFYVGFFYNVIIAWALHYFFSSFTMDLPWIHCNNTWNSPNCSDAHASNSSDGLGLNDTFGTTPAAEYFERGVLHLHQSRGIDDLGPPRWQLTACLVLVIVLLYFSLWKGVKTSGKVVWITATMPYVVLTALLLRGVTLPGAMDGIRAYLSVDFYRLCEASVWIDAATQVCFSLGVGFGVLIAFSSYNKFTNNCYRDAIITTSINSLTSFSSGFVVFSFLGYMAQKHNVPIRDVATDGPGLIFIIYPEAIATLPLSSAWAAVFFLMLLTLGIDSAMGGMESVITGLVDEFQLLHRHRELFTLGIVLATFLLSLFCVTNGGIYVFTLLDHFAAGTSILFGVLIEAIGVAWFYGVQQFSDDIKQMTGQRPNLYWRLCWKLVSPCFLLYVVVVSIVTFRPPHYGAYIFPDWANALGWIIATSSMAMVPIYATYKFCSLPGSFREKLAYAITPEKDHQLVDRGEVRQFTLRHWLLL
Sequence of Norepinephrine transporter (Q9WTR4 whole entry): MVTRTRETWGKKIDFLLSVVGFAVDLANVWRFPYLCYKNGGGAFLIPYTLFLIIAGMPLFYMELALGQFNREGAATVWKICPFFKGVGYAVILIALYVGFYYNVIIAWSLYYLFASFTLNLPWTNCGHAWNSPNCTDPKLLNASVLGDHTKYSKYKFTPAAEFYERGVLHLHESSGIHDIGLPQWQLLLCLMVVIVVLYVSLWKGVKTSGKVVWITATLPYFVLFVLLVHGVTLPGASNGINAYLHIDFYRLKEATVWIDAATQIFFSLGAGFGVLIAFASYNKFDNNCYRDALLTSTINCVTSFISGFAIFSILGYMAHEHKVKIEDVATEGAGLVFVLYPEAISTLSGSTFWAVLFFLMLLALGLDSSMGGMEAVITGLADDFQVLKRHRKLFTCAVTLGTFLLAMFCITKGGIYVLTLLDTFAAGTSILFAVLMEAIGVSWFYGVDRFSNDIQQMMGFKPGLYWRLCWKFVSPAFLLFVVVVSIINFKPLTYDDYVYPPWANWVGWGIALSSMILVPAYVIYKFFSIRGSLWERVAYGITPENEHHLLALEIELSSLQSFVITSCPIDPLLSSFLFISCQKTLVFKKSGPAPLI
Sequence of Sodium-dependent noradrenaline transporter (Homo sapiens) (P23975 whole entry): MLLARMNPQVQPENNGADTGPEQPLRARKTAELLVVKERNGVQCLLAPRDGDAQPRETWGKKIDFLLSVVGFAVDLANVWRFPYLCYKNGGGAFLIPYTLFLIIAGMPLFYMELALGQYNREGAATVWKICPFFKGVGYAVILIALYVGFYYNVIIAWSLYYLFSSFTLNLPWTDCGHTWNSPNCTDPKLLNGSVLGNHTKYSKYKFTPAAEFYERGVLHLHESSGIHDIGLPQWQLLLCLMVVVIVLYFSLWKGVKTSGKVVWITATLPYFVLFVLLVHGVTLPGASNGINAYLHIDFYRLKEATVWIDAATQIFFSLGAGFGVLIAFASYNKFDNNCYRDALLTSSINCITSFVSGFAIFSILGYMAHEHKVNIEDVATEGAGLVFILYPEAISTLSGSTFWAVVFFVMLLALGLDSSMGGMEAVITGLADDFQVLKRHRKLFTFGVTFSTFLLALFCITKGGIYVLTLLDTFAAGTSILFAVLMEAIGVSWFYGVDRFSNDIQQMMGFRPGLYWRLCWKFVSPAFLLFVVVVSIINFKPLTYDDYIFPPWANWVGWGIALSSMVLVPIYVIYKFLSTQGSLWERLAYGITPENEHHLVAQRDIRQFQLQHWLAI
Sequence of Sodium-dependent serotonin transporter (Homo sapiens) (P31645 whole entry, looked up): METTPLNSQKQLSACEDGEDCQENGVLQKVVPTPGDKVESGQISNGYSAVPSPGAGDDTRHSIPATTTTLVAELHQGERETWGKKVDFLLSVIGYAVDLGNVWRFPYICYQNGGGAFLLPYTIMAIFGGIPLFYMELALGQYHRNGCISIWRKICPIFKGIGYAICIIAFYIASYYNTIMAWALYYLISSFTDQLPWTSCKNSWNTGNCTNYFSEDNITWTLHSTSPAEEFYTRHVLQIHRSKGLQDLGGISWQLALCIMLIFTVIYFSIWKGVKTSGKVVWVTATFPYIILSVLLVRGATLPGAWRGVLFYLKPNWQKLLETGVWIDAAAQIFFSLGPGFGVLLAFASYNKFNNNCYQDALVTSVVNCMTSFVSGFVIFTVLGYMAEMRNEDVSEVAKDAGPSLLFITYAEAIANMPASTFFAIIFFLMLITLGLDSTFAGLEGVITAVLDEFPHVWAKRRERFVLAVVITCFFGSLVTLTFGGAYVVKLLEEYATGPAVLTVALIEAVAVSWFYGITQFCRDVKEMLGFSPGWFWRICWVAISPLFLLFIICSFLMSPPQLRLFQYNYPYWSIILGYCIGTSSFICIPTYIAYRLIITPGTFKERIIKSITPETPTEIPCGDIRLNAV

Ki [1] | Ki [2] | Ki [3] | Activity [4] | Activity [5] | Activity [6] | Ratio Ki (Rattus norvegicus [7]) | Ratio Ki (Rattus norvegicus [8]) | Compound
4.87 µM | > 10 µM | > 10 µM |  |  |  |  |  | CCN(CC)c1ccc2c(-c3ccc(S(=O)(=O)NCCCCCC(=O)NCCNCCCC4(c5ccccc5)OC(C)(C)c5ccccc54)cc3S(=O)(=O)[O-])c3ccc(=[N+](CC)CC)cc-3oc2c1 (stereo not given)
0.964 µM | 1.14 µM | > 10 µM |  |  |  |  |  | CCN(CC)c1ccc2c(-c3ccc(S(=O)(=O)NCCCCCC(=O)NCc4ccc5c(c4)C(C)(C)OC5(CCCNC)c4ccccc4)cc3S(=O)(=O)[O-])c3ccc(=[N+](CC)CC)cc-3oc2c1 (stereo not given)
1.54 µM | 0.785 µM | 0.043 µM | Tde | Active | Dde | 18 | 36 | CCN(CC)c1ccc2c(-c3ccc(S(=O)(=O)NCCCCCC(=O)NCc4cccc(C(CCNC)Oc5ccccc5OC)c4)cc3S(=O)(=O)[O-])c3ccc(=[N+](CC)CC)cc-3oc2c1 (stereo not given)
> 10 µM | 0.795 µM | 0.0045 µM |  |  |  |  |  | CNCCCC1(c2ccccc2)OC(C)(C)c2ccccc21 (stereo not given) [TALOPRAM]

Compound | Ki [1] | Ki [2] | Ki [3] | Activity [4] | Activity [5] | Activity [6] | Ratio Ki (Rattus norvegicus [7]) | Ratio Ki (Rattus norvegicus [8])
CCN(CC)c1ccc2c(-c3ccc(S(=O)(=O)NCCCCCC(=O)NCCN4C5CCC4[C@@H](C(=O)OC)[C@@H](c4ccc(Cl)c(Cl)c4)C5)cc3S(=O)(=O)[O-])c3ccc(=[N+](CC)CC)cc-3oc2c1 (stereo not given in full) | 0.017 µM | 0.016 µM | 0.079 µM |  |  |  |  | 
